# Reference: US11369587B2, “Injectable pharmaceutical composition of tecovirimat and preparation method thereof” (priority 2016, dated 2022)
# What was measured:
# [1] = assay type: physicochemical; conditions: ternary solubilizing composition of Tecovirimat, cyclodextrin and Meglumine
# Procedure: An excessive amount of Tecovirimat was added to an aqueous solution comprising meglumine and cyclodextrin at a different ratio to form a suspension. The suspension was placed in a constant-temperature incubation shaker, and was shaken at a temperature of 25±1° C., 37±1° C. and 60±1° C. for 72 h, respectively. After reaching equilibrium, the suspension was filtered through a 0.45 μm hydrophilic filter membrane to obtain a filtrate. After the filtrate was properly diluted with an acetonitrile-water (50:50, v/v) solution, the absorbance was measured at 224 nm, and the solubility of Tecovirimat was calculated. The corresponding solubility curve was plotted by using the solubility of the drug as the ordinate, and using the concentration of cyclodextrin and/or meglumine as the abscissa.
# [2] = 20%-40% (w/v) hydroxypropyl-cyclodextrin (HP-3-CD) at 37° C.; cited from earlier work
compound,measurement,setting,value
"O=C(NN1C(=O)[C@@H]2[C@@H]3C=C[C@@H]([C@H]4C[C@@H]34)[C@@H]2C1=O)c1ccc(C(F)(F)F)cc1 [Tecovirimat, 4-trifluoromethyl-N-(3,3a,4,4a,5,5a,6,6a-octahydro-1,3-dioxo-4,6-ethenocycloprop[f]isoindol-2(1H)-yl)-benzamide]",maximal solubility,[1],up to 152 mg/ml
same,solubility,[2],1.5 to 11 mg/mL
